Residues, ends and D or L forms follow the SMILES beside them.
Tests used:
[1] = ref [29], [30]; cited from earlier work
[2] = biological target: T1, WT GLP-2R (Homo sapiens, UniProt O95838); assay: GLP-2R signaling assay, cAMP measurements; assay type: cell-based
T1 sequence (O95838 1-553): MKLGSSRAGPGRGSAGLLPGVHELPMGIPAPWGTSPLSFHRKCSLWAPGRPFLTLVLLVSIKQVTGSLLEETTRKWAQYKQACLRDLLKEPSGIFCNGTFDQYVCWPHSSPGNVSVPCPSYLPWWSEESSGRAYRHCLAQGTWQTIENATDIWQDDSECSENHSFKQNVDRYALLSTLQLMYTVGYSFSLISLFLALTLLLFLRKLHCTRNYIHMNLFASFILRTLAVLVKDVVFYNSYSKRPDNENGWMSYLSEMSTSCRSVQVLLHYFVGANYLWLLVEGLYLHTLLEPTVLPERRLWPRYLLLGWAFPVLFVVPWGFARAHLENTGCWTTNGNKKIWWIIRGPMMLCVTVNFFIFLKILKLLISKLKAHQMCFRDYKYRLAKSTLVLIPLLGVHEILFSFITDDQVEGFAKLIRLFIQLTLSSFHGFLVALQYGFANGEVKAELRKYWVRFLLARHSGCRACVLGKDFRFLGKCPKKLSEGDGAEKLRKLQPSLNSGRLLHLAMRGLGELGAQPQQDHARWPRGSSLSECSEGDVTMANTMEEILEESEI

Row | EC50 [2] [nM] | SMILES | half-life, whole body metabolism in vivo [1] [min]
1 |  | CC[C@H](C)[C@H](NC(=O)[C@H](Cc1ccccc1)NC(=O)[C@H](CC(=O)O)NC(=O)[C@H](CCCN=C(N)N)NC(=O)[C@H](C)NC(=O)[C@H](C)NC(=O)[C@H](CC(C)C)NC(=O)[C@H](CC(N)=O)NC(=O)[C@H](CC(=O)O)NC(=O)[C@H](CC(C)C)NC(=O)[C@@H](NC(=O)[C@@H](NC(=O)[C@H](CC(N)=O)NC(=O)[C@H](CCSC)NC(=O)[C@H](CCC(=O)O)NC(=O)[C@H](CC(=O)O)NC(=O)[C@H](CO)NC(=O)[C@H](Cc1ccccc1)NC(=O)[C@H](CO)NC(=O)CNC(=O)[C@H](CC(=O)O)NC(=O)[C@H](C)NC(=O)[C@@H](N)Cc1cnc[nH]1)[C@@H](C)O)[C@@H](C)CC)C(=O)N[C@@H](CC(N)=O)C(=O)N[C@@H](Cc1c[nH]c2ccccc12)C(=O)N[C@@H](CC(C)C)C(=O)N[C@H](C(=O)N[C@@H](CCC(N)=O)C(=O)N[C@H](C(=O)N[C@@H](CCCCN)C(=O)N[C@H](C(=O)N[C@H](C(=O)N[C@@H](CC(=O)O)C(=O)O)[C@@H](C)O)[C@@H](C)CC)[C@@H](C)O)[C@@H](C)CC [GLP-2, glucagon-like peptide 2] | 7
2 |  | CC[C@H](C)[C@H](NC(=O)[C@H](Cc1ccccc1)NC(=O)[C@H](CCC(=O)O)NC(=O)[C@H](CCCCN)NC(=O)[C@H](C)NC(=O)[C@H](C)NC(=O)[C@H](CCC(N)=O)NC(=O)CNC(=O)[C@H](CCC(=O)O)NC(=O)[C@H](CC(C)C)NC(=O)[C@H](Cc1ccc(O)cc1)NC(=O)[C@H](CO)NC(=O)[C@H](CO)NC(=O)[C@@H](NC(=O)[C@H](CC(=O)O)NC(=O)[C@H](CO)NC(=O)[C@@H](NC(=O)[C@H](Cc1ccccc1)NC(=O)[C@@H](NC(=O)CNC(=O)[C@H](CCC(=O)O)NC(=O)[C@H](C)NC(=O)[C@@H](N)Cc1c[nH]cn1)[C@@H](C)O)[C@@H](C)O)C(C)C)C(=O)N[C@@H](C)C(=O)N[C@@H](Cc1c[nH]c2ccccc12)C(=O)N[C@@H](CC(C)C)C(=O)N[C@H](C(=O)N[C@@H](CCCCN)C(=O)NCC(=O)N[C@@H](CCCN=C(N)N)C(=O)NCC(=O)O)C(C)C [GLP-1, glucagon-like peptide 1] | 1 to 2
3 | 0.265 | CC[C@H](C)[C@H](NC(=O)[C@H](Cc1ccccc1)NC(=O)[C@H](CC(=O)O)NC(=O)[C@H](CCCNC(=N)N)NC(=O)[C@H](C)NC(=O)[C@H](C)NC(=O)[C@H](CC(C)C)NC(=O)[C@H](CC(N)=O)NC(=O)[C@H](CC(=O)O)NC(=O)[C@H](CC(C)C)NC(=O)[C@@H](NC(=O)[C@@H](NC(=O)[C@H](CC(N)=O)NC(=O)[C@H](CCSC)NC(=O)[C@H](CCC(=O)O)NC(=O)[C@H](CC(=O)O)NC(=O)[C@H](CO)NC(=O)[C@H](Cc1ccccc1)NC(=O)[C@H](CO)NC(=O)CNC(=O)[C@H](CC(=O)O)NC(=O)[C@H](CO)NC(=O)[C@@H](N)Cc1c[nH]cn1)[C@@H](C)O)[C@@H](C)CC)C(=O)N[C@@H](CC(N)=O)C(=O)N[C@@H](Cc1c[nH]c2ccccc12)C(=O)N[C@@H](CC(C)C)C(=O)N[C@H](C(=O)N[C@@H](CCC(N)=O)C(=O)N[C@H](C(=O)N[C@@H](CCCCN)C(=O)N[C@H](C(=O)N[C@H](C(=O)N[C@@H](CC(=O)O)C(=O)O)[C@@H](C)O)[C@@H](C)CC)[C@@H](C)O)[C@@H](C)CC [GLP-2 Ser2] (H-HSDGSFSDEMNTILDNLAARDFINWLIQTKITD-OH) | 
